Results published in US12234207B2, “Halo-(3-(phenylsulfonyl)prop-1-enyl)pyridine derivative and use thereof” (Cureverse Incorporated, priority 2018, dated 2025).
“And” between values parts separate entries of the source, which are not always exact repeats. Equal entries are not always repeated.

Legend:
[1] = background statement; cited from earlier work
[2] = test system: MPTP-induced Parkinson's disease model; assay: Coat-hanger test in MPTP-induced Parkinson's disease mice; format: in vivo, C57/BL6 mice; settings: orally 20 mg/mL once a day for 3 days from the day before MPTP; time limit 3 minutes
Method: (§1) A specifically designed animal experiment schedule is shown at the top of FIG. 3. […] The MPTP-induced Parkinson's disease model was prepared by injecting 20 mg/kg of MPTP intraperitoneally at 2-hour intervals a total of 4 times in a day. In the negative control group, physiological saline solution containing no MPTP was injected at the same time. In order to confirm whether or not Parkinson's disease was induced, motor impairment caused by dopaminergic neuronal cell death, known as the main symptom of Parkinson's disease, was confirmed by a vertical grid test and a coat-hanger test.
The coat-hanger test, which is another behavioral experiment that evaluates exercise ability, was conducted as follows, as shown in the bottom left of FIG. 3: when the mice were placed in the middle of a hanger 30 cm away from the floor, the mice moved toward a safe position on the top of the hanger while being hanged, and a score was assigned according to the position at the time point with a time limit of 3 minutes. The specific experimental method and the result are shown at the bottom of FIG. 3. As shown in the graph at the bottom of FIG. 3, most of the negative control moved to the top of the hanger, corresponding to 5 points, but in the case of the positive control, 2 to 3 points were recorded because the mice mainly stopped at both ends of the bottom of the hanger.

[3] = test system: MPTP-induced Parkinson's disease model; assay: Vertical grid test in MPTP-induced Parkinson's disease mice; format: in vivo, C57/BL6 mice; settings: orally 20 mg/mL once a day for 3 days from the day before MPTP; test 6 days after MPTP
Method: as §1
The vertical grid test evaluates the time to climb down when an experimental animal model is placed on a vertical ladder. In the present invention, the time to turn towards the floor and the total time taken to climb down from the ladder were measured once the mice were placed on a ladder.

Nrf2 [4] = assay: Western blot of Nrf2 in nuclear extract of BV2 cells; format: cell-based; settings: 0 μM to 10 μM, 6 hours, relative to Lamin B1
Method: Through Experimental Example 1, the activation of Nrf2 by the compounds of the present invention was indirectly confirmed. Thus, in order to directly confirm the effect of the compounds of the present invention on Nrf2 activation, Western blot was performed. […] Specifically, BV2 cells were loaded in a 25T flask at a density of 2×10^6 cells/flask in an amount of 4 mL and incubated in RPM1640 medium for 24 hours. […] The thus-incubated cells were recovered, and the nucleus and cytoplasmic extracts were separated. The thus-separated nuclear extract was electrophoresed by 10% SDS-PAGE, transferred to a PVDF membrane, and blocked with bovine serum albumin (BSA). Thereafter, the amount of Nrf2 protein in the nucleus was measured using an anti-Nrf2 antibody, and the results are shown in FIG. 1. The amount of Nrf2 was measured relative to Lamin B1, which refers to the same amount of nuclear extract.

GCLC, GCLM, and HO-1 = assay: Western blot of Nrf2-related antioxidant enzymes in BV2 cells; format: cell-based; settings: 0 μM to 10 μM, 24 hours, relative to actin
Text: As a transcription factor, Nrf2 acts to protect cells by increasing antioxidant enzymes in the nucleus. Through preceding Experimental Examples 1 and 6, the activation of Nrf2 by the compound of the present invention was confirmed directly or indirectly. Thus, whether the activated Nrf2 increases antioxidant enzymes was confirmed by measuring the amount of antioxidant enzymes using Western blot. As antioxidant enzymes to be detected, GCLC, GCLM, and HO-1, expression of which is known to increase due to Nrf2, were selected. Specifically, BV2 cells were loaded at a density of 5×10^5 cells/well in a 6-well plate in an amount of 1.5 mL, and incubated in RPM1640 medium for 24 hours. […] The thus-incubated cells were recovered and lysed to extract the total protein, and then subjected to electrophoresis by 10% SDS-PAGE. The total extract subjected to electrophoresis was transferred to a PVDF membrane and then blocked with bovine serum albumin. Thereafter, the amount of antioxidant enzymes expressed in cells was measured using antibodies corresponding to each antioxidant enzyme, and the results are shown in FIG. 2.

Solubility in water = format: physicochemical
Text: In the development of new drugs, the solubility of drugs is one of the very important factors associated with the bio-absorption rate. […] In addition, drugs with low solubility may crystallize in tissues or cause serious toxicity, and thus, the FDA requires additional research results on oral drugs with low solubility. Furthermore, low solubility may also be the biggest cause of failure in the development of candidate materials.

dopaminergic neurons = assay: Tyrosine hydroxylase immunohistochemical staining of corpus striatum and substantia nigra, MPTP mice; format: in vivo, C57/BL6 mice; settings: Compound 15 orally
Text: From the results of Experimental Example 8, the effect of restoring exercise ability by the compound of the present invention was confirmed. In order to confirm whether the recovery of such exercise ability was due to the neuroprotective effect of the compounds of the present invention, brains were excised from mice and analyzed by immunohistochemical staining using tyrosine hydroxylase used as a marker for dopaminergic neurons. As a site for analysis, the corpus striatum and substantia nigra, which are concentrated with dopaminergic neurons, were selected. Specifically, after anesthetizing the mice in the negative control group, the positive control group, and the experimental group with avertin, physiological saline and 4% formaldehyde were injected into the heart, and the brain was excised, which was sequentially immersed in 4% formaldehyde and 30% sucrose, and stored in the refrigerator for one day each. Thereafter, the tissue fragments of the corpus striatum and substantia nigra were obtained from the stored brain using a cryosectioning machine. The brain tissue fragments were stained by DAB staining using a tyrosine hydroxylase antibody, which is specifically expressed in dopaminergic neurons, by immunohistochemical staining, and observed with a microscope, and the results are shown in FIG. 4.

hERG channel = hERG channel (Homo sapiens, UniProt Q12809); assay: hERG channel-binding inhibition (fluorescent tracer polarization); settings: hERG channel-containing membrane
Text: The human ether-a-go-go-related gene (hERG) ion channel is an important component of cardiac repolarization, and inhibitors of this channel can induce arrhythmia and sudden death. […] When a fluorescent hERG channel tracer binds to a membrane containing the hERG channel protein, the rotation of the tracer is restricted, thereby maintaining a high polarization state. However, when a competitive inhibitor binds to the hERG channel, the tracer is competitively pushed away from the membrane and depolarized as it loses its direction.

[5] = background statement, cited from earlier work
[6] = background statement; cited from earlier work; remark: listed apart in the source
CYP 2C9 = target: T1, CYP 2C9 (Homo sapiens, UniProt P11712); assay: Inhibition of CYP activity in human liver microsomes, 2C9; format: in vitro ADME; settings: 10 μM compound, human liver microsomes 0.25 mg/mL, % activity relative to the negative control
T1 construct: from tissue; host or cells: human liver microsomes
Method: (§2) Thereafter, the reaction was terminated by adding an acetonitrile solution containing an internal standard substrate (terfenadine), followed by centrifugation (14,000 rpm, 4° C.) for 5 minutes. Subsequently, the supernatant was injected into the LC-MS/MS system, and the metabolites of the substrate drugs were simultaneously analyzed to evaluate the inhibitory ability of these compounds on drug metabolic enzymes. The metabolites of each CYP isoenzyme indicator drug generated through the above reaction were analyzed using the Shimadzu Nexera XR system and TSQ vantage (Thermo). A Kinetex C18 column was used as the HPLC column, and distilled water containing 0.1% formic acid and acetonitrile containing 0.1% formic acid were used as the mobile phase. The generated metabolites were quantified using the quantification mode of multiple reaction monitoring (MRM), and data were analyzed with Xcalibur (version 1.6.1).

CYP 2C19 = target: T2, CYP 2C19 (Homo sapiens, UniProt P33261); assay: Inhibition of CYP activity in human liver microsomes, 2C19; format: in vitro ADME; settings: 10 μM compound, human liver microsomes 0.25 mg/mL; % activity relative to the negative control
T2 construct: from tissue; host or cells: human liver microsomes
Method: as §2

Nrf2 [7] = assay: Nrf2 functional cell-based assay (DisoveRx), luminescence; settings: relative to Compound 15
CYP 3A4 = target: T3, CYP 3A4 (Homo sapiens, UniProt P08684); assay: Inhibition of CYP activity in human liver microsomes, 3A4; format: in vitro ADME; settings: 10 μM compound, human liver microsomes 0.25 mg/mL; % activity relative to the negative control
T3 construct: from tissue; host or cells: human liver microsomes
Method: as §2

CYP 2D6 = target: T4, CYP 2D6 (Homo sapiens, UniProt P10635); assay: Inhibition of CYP activity in human liver microsomes, 2D6; format: in vitro ADME; settings: 10 μM compound, human liver microsomes 0.25 mg/mL; % activity relative to the negative control
T4 construct: from tissue; host or cells: human liver microsomes
Method: as §2

[8] = when administered into the body

Chain of hERG channel (Q12809 whole entry): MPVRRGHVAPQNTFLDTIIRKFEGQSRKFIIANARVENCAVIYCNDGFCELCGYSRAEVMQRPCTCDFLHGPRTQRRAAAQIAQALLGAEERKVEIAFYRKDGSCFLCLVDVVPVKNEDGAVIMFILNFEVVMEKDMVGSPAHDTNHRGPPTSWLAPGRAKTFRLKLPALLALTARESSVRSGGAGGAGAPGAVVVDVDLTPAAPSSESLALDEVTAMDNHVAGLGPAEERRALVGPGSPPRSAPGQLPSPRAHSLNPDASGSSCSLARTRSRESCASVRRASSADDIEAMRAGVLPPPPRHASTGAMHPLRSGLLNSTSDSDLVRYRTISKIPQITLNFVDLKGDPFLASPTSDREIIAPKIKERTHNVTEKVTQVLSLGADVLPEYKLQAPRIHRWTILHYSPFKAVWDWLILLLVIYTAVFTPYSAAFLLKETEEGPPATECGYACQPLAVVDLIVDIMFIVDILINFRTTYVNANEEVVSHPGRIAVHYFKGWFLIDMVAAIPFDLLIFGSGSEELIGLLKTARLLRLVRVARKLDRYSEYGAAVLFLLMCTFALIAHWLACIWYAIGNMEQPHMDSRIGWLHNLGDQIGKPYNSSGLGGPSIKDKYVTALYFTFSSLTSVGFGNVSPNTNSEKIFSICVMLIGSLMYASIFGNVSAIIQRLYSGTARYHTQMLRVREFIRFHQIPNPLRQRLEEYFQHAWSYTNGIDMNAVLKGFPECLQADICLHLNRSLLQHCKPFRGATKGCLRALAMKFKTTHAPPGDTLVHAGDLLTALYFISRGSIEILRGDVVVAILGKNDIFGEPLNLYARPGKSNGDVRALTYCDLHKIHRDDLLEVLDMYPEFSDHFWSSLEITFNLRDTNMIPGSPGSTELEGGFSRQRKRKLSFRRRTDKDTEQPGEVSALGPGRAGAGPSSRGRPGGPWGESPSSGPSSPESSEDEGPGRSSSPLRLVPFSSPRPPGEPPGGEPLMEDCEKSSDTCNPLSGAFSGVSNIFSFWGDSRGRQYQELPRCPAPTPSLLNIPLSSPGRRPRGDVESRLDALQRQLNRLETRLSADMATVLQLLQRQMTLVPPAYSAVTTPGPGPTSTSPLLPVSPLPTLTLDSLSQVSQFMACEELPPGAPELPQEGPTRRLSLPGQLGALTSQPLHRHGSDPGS
T1 sequence (P11712 whole entry): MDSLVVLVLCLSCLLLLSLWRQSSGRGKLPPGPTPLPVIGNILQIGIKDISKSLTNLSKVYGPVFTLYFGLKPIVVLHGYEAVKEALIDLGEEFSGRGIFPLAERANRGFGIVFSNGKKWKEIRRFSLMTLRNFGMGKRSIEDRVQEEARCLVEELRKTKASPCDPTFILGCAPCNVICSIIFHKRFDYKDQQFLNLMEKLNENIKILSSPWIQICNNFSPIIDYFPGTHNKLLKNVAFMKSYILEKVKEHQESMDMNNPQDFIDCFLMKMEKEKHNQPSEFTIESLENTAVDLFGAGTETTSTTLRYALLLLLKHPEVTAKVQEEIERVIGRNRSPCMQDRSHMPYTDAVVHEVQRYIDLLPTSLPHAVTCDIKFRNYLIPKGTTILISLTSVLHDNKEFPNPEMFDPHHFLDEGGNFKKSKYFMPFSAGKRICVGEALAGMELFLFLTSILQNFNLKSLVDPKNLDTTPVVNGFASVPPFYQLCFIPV
T2 sequence (P33261 whole entry): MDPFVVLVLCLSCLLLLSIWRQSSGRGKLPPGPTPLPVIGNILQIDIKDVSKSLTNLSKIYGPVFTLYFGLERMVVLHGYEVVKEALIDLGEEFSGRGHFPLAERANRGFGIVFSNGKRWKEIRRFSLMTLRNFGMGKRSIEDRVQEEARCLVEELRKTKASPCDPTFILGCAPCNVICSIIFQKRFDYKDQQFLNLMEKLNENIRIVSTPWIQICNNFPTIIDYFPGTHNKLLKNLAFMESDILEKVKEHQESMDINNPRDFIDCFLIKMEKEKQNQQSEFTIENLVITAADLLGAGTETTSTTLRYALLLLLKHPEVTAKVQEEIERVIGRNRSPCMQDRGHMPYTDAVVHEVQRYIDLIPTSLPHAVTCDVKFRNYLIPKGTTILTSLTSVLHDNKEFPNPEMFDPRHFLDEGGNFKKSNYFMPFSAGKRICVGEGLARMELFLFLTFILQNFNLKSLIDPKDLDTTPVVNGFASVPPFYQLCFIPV
T3 sequence (P08684 whole entry): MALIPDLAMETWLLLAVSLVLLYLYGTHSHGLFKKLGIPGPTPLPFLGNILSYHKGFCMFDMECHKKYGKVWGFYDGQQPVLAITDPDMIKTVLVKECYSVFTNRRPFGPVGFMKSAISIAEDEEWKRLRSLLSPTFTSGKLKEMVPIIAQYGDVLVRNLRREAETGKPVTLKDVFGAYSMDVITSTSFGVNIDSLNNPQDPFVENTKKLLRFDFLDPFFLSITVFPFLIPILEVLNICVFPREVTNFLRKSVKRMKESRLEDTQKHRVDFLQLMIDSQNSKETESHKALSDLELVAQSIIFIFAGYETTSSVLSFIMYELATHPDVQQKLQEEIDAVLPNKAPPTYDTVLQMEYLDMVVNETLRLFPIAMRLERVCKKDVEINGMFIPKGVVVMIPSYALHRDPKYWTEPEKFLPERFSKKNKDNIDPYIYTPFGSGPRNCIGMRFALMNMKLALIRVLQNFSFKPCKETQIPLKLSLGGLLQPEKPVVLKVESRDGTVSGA
T4 sequence (P10635 whole entry): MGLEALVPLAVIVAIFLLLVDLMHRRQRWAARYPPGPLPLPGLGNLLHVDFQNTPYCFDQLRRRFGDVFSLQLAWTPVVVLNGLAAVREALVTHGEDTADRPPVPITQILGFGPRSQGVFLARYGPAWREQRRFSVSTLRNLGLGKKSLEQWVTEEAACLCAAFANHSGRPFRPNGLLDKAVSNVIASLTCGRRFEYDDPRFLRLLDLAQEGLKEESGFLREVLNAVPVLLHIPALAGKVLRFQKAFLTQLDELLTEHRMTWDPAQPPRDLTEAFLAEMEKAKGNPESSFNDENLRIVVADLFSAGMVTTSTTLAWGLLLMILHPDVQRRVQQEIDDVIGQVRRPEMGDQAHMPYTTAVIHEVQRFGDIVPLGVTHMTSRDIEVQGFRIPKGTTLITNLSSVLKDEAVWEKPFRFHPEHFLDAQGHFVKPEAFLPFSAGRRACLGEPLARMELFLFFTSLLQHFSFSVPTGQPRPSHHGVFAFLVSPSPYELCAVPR

| solubility (Solubility in water) [µg/mL] | CYP 2C9 activity (CYP 2C9) [%] | CYP 2C9 activity (CYP 2C9; listed as Comparative Example 1) [%] | CYP 2C19 activity (CYP 2C19) [%] | CYP 3A4 activity (CYP 3A4) [%] | CYP 2D6 activity (CYP 2D6) [%] | SMILES | Time until dissipated when administered into the body [1] [h] | Coat-hanger test score, average [2] [points] | Vertical grid test: time to turn [3] | Vertical grid test: total time to climb down [3] | Amount of Nrf2 protein in the nucleus (Nrf2 [4]) | Expression of Nrf2 and antioxidant enzymes GCLC, GCLM, and HO-1 (GCLC, GCLM, and HO-1) | Tyrosine hydroxylase staining of corpus striatum and substantia nigra (dopaminergic neurons) | IC50 (hERG channel) | Cardiac toxicity [5] | Bioavailability [5, 8] | Drug metabolic stability [5, 8] | Solubility in water (in words) [6] | Effect of inducing Nrf2 activity as % of the level of Compound 15 (Nrf2 [7]) |
| --- | --- | --- | --- | --- | --- | --- | --- | --- | --- | --- | --- | --- | --- | --- | --- | --- | --- | --- | --- |
|  |  |  |  |  |  | C[S+]([O-])CCCCN=C=S (centres unmarked) [SFN (sulforaphane), 1-isothiocyanato-4-methylsulfinylbutane] | ≤ 1 |  |  |  |  |  |  |  |  |  |  |  |  |
| ≥ 10000 |  |  |  |  |  | Cl.O=S(=O)(/C=C/c1ncccc1F)c1ccc(OCCCN2CCOCC2)cc1 [Compound 15, (E)-4-(3-(4-(2-(3-fluoropyridin-2-yl)vinylsulfonyl)phenoxy)propyl)morpholine hydrochloride] |  | ≥ 4 | reduced again to a level similar to that of the negative control group | reduced again to a level similar to that of the negative control group | promotes the activation of Nrf2 in a concentration-dependent manner | increased the expression of antioxidant enzymes through Nrf2 activation in a concentration-dependent manner | the staining became dark again |  |  |  |  |  |  |
| ≤ 10 | 100.0 | 100 | 16.8 | 55.6 | 54.9 | COc1ccccc1S(=O)(=O)/C=C/c1ccccc1Cl [VSC2, (E)-1-chloro-2-(2-(2-methoxyphenylsulfonyl)vinyl)benzene, reference compound] |  |  |  |  |  |  |  | 1000 nM and 1200 nM | cardiac toxicity | low | low | low | about 60% |
